Results on nine compounds are retold here after patent EP0007319A1, “Indan-1-carboxylic acid derivatives,process for their preparation and pharmaceutical preparations containing these compounds” (priority 1978, dated 1980).

In one data set the test system is Adjuvans-Arthritis. Put plainly: Adjuvant arthritis test (antiphlogistic activity). Format: in vivo, Ratten des Stammes Lewis (LEW). The conditions noted are these: Rattus norvegicus; dose giving 40 % healing of right hind paw; M. butyricum adjuvant; oral, daily over 4 days from day 11; Lewis rats; read-out: Adjuvans-Arthritis Test in mg/kg Tier (ED40). An excerpt: Die antiphlogistische Wirksamkeit der eriindungsgemäßen Substanzen kann mit Hilfe des bekannten Adjuvans-Arthritis-Testes ermittelt werden, der wie folgt durchgeführt wird:
Es werden weibliche und männliche Ratten des Stammes Lewis (LEW) in der Gewichtsspanne zwischen 110 - 190 g verwendet. Die Tiere erhalten Trinkwasser und Altromin-Preßfutter ad libitum.
Für jede Dosisgruppe werden 10 Ratten eingesetzt .
Mycobacterium butyricum der Firma Difko, Detroit, wird als Reizmittel verwandt. Eine Suspension von 0,5 mg M. butyricum in 0,1 ml dünnflüssigem Paraffin. (DAB 7) wird in die rechte Hinterpfote subplantar injiziert.
Die Testsubstanzen werden vom 11. Versuchstag an täglich über 4 Tage oral gegeben. Die Substanzen werden als klare wässrige Lösung oder als Kristallsuspension unter Zusatz von Myrj 53 (85 mg.%) in isotonischer Natriumchlorid-Lösung verabreicht.
Die Ratten werden in bezug auf ihr Köpergewicht möglichst gleichmäßig in verschiedene Gruppen eingeteilt. Nach plethysmographischej Volumenmessung der rechten Hinterpfote wird in diese subplantar 0,1 ml Adjuvans injiziert. Die rechten Hinterpfoten werden vom 14. Versuchstag bis zum Versuchsende gemessen. Die Versuchsdauer beträgt 3 Wochen.
Bestimmt wird die Dosis an Testsubstanz, bei der eine 40 %ige Abheilung beobachtet wird (=ED40).

A further data set relates to Magen. Put plainly: Ulcer test (gastric ulceration). Format: in vivo, Wistar-Eatten (SPF). An excerpt: Eine häufige Komplikation bei der Therapie mit nichtsteroidalen Entzündungshemmern stellt das Auftreten von Magenulcerationen dar. Diese Nebenwirkung kann im Tierversuch nachgewiesen werden, wobei als Dosis die Menge Testsubstanz verwendet wird, bei der im Adjuvans-Arthritis Test eine 40 %ige Abheilung beobachtet wird. Der Ulkus-Test wird wie folgt durchgeführt.
Es werden männliche Wistar-Eatten (SPF) verwandt. Die Tiere liege in einer Gewichtsspanne von 130 + 10 g. 16 Stunden vor Versuchsbeginn werden die Tiere vom Futter abgesetzt; sie erhalten Wasser ad libitum.
Pro Dosis werden 5 Tiere eingesetzt. Die Substanzen werden einmal oral, in Natriumelorid gelöst' oder als Kristallsuspension unter Zusatz von 85 mg% Myrj 53_appliziert.
3 Stunden nach Substanzapplikation injiziert man 1 ml einer 3 %igen Lösung des Farbstoffs Diphenylreinblau intravenös und tötet das Tier. Der Magen wird reseziert und mikroskopisch auf Anzahl von Epithclläsionen und Ulcera, die durch Farbstoffanreichcrunsen hervortreten, untersucht.

The mark [1] stands for this setting: single oral dose equal to the ED40 of the adjuvant arthritis test, male Wistar rats, fasted 16 h, stomach examined 3 h after application.

As to `CC(C(=O)O)c1ccc(CC2CC2)cc1` (stereo not drawn) [Verbindung 5, 2-(4-Cyclopropylmethyl-phenyl)-propionsäure], the ED40 in the data set with Adjuvans-Arthritis was found to be 90 mg/kg. Besides, the “Anzahl der Magenulzera bei gleicher Dosis” value with Magen (setting [1]) was 5,4.
Consider `O=C(O)C1CCc2cc(C3CCCCC3)c(Cl)cc21` (stereo not drawn) [Verbindung 4, 6-Chlor-5-cyclohexyl-indan-1-carbonsäure], for which the ED40 in the data set with Adjuvans-Arthritis came to 4 mg/kg. Moreover, the “Anzahl der Magenulzera bei gleicher Dosis” value with Magen (rat, in vivo, po) is on record as 7,8.
Take `O=C(O)C1CCc2cc(C3CCCCC3)ccc21` (stereo not drawn) [Verbindung 3, 5-Cyclohexyl-indan-1-carbonsäure]: in the data set with Adjuvans-Arthritis, the ED40 was determined as 50 mg/kg. For the same compound, the “Anzahl der Magenulzera bei gleicher Dosis” value with Magen (rat, in vivo, po) was 8,3.
In the case of `CC(C)Cc1ccc(C(C)C(=O)O)cc1` (stereo not drawn) [Verbindung 1], the ED40 in the data set with Adjuvans-Arthritis was 100 mg/kg. Besides, in the data set on Magen (rat, in vivo, po), the “Anzahl der Magenulzera bei gleicher Dosis” value is recorded as 6,8.
On to `CC(C(=O)O)c1ccc(CC2CCCC2)cc1` (stereo not drawn) [Verbindung 6, 2-(4-Cyclopentylmethyl-phenyl)-propionsäure], for which the ED40 in the data set with Adjuvans-Arthritis stood at 10 mg/kg. For the same compound, the “Anzahl der Magenulzera bei gleicher Dosis” value in the data set with Magen (setting [1]) was 0,6.
`O=C(O)C1CCc2cc(CC3CCCC3)c(Cl)cc21` (stereo not drawn) [Verbindung 8, 6-Chlor-5-cyclopentyl-methyl-indan-1-carbonsäure]: in the data set on Adjuvans-Arthritis, the ED40 was determined as 30 mg/kg. Besides, in the data set with Magen (setting [1]), the “Anzahl der Magenulzera bei gleicher Dosis” value is 2,2.
For `O=C(O)C1CCc2cc(C=C3CCCC3)c(Cl)cc21` (stereo not drawn) [Verbindung 9, 6-Chlor-5-cyclopentyliden-methyl-indan-1-carbon-säure], in that order: 40 mg/kg and 0,7.
With `CC(C(=O)O)c1ccc(C2CCCCC2)cc1` (stereo not drawn) [Verbindung 2, 2-(4-Cyclohexyl-phenyl)-propionsäure], the ED40 in the data set on Adjuvans-Arthritis turned out to be 40 mg/kg. Besides, the “Anzahl der Magenulzera bei gleicher Dosis” value with Magen (rat, in vivo, po) is 7,6.
`CC(C(=O)O)c1ccc(CC2CCCC2)c(Cl)c1` (stereo not drawn) [Verbindung 7, 2-(3-Chlor-4-cyclopentyl-methyl-phenyl)-propionsäure]: the ED40 with Adjuvans-Arthritis is 3 mg/kg. Also, the “Anzahl der Magenulzera bei gleicher Dosis” value in the data set with Magen (setting [1]) is 0,6.
